Data reported in US11648239B2, “Azophenols as ERG oncogene inhibitors” (The Henry M. Jackson Foundation for the Advancement of …, priority 2015, dated 2023).

Key:
Format in all cases: cell-based
ERG protein = target: T1, ERG protein (Homo sapiens, UniProt P11308); assay: Inhibition of ERG protein in VCaP cells (Western blot); conditions: for inhibition of ERG protein in VCaP cells: 0.1, 0.2, 0.4, 0.6, 0.8 and 1 μM, FIG. 13, 16; for inhibition of endogenous ERG protein: VCaP, 0.25 μM and 1 μM, FIG. 2
T1 construct: host or cells: VCaP
T1 sequence (P11308 33-479 limits assumed): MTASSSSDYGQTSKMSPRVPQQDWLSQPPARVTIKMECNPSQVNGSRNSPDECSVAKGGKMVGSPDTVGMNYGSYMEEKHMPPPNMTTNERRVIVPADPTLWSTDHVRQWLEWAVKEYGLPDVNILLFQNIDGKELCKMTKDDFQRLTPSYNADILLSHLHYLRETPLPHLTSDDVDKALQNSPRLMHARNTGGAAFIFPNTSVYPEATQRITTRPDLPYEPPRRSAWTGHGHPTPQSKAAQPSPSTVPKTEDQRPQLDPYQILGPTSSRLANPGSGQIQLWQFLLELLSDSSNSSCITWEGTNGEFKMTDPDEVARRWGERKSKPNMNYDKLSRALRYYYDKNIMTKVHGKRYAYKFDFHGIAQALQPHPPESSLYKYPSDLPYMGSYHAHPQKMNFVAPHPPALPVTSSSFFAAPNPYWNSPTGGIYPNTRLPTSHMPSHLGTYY
Description: The TMPRSS2-ERG fusion positive prostate cancer cell line, VCaP (ATCC), was used to identify the test compound inhibitors of ERG expression. Cells were grown in medium using conditions prescribed by the vendor. VCaP cells in logarithmic growth were seeded in a tissue culture dish at a cell density of 2×10^6 cells per plate. Following 48 hours incubation at 37° C., cells were exposed for a period of 48 hours with 0, 0.05, 0.25 and 0.5 μM concentrations of each test azophenol compound. The inhibition of ERG expression was evaluated by an In-cell Western blot assay (LI-COR Biosciences, Lincoln, Nebr.) using the ERG specific CPDR ERG-MAb as further described below.
(§1) Inhibition of ERG protein expression by the test compounds were determined by Western blot analysis. The ERG specific monoclonal antibody CPDR ERG-MAb was used as the primary antibody. In brief, Western blot was performed by running a fixed amount of total protein extracted from cell lysates of the treated cells using (4-12% Bis-Tris) gel by electrophoresis, followed by transfer to membrane and incubation with primary antibody and continued with HRP-conjugated secondary antibody. Cultured cells were treated at specific dosages with each of the tested ERG inhibitors. Following incubation of the treated cells for an indicated time period, cells were lysed using Mammalian Protein Extraction Reagent (M-PER; Pierce, Rockford, Ill.) containing a protease inhibitor cocktail and phosphatase inhibitor cocktails I & III (Sigma, St Louis, Mo.). Cell lysates containing 50 μg of total protein were electrophoresed through 4-12% Bis-Tris Gel (Invitrogen, Carlsbad, Calif.) and the cellular proteins were transferred to PVDF membrane (Invitrogen, Carlsbad, Calif.). Membranes were incubated at 4° C. for 12 hours with primary antibodies for AR, PSA, GAPDH, α-Tubulin, apoptosis markers and cell cycle regulators. Following exposure to primary antibodies, the membranes were washed with buffer (3×, 5 minutes each at room temperature) followed by incubation with relevant secondary antibodies for 1 hour at 24° C. Finally, the membranes were washed with buffer and developed using the ECL Western blot detection reagent (GE Health Care, Buckinghamshire, UK). The ERG protein expression of the test azophenol compounds were normalized with GAPDH.
In brief, ERG positive VCaP cells in loganthmic growth phase were plated in 10 cm tissue culture dish at a cell density of 2×10^6 cells per dish. The plated cells were treated with 0, 0.2, 0.4, 0.6, 0.8 and 1 μM concentrations of each azophenol compound for a period of 48 hours. Cells from each dish were then processed for Western blot analysis and alterations in the expression of ERG protein were monitored. Both ERG and GAPDH protein band were quantified from each concentration using Image J (NIH) and ERG band density was normalized with corresponding GAPDH protein control. Relative density of ERG in each concentration was calculated and with Graphpad Prism 6 software, the IC50 of each compound was calculated.

AR = assay: Inhibition of endogenous AR protein in VCaP cells (Western blot); conditions: 0.25 μM and 1 μM, FIG. 2
Description: as §1, with “Following exposure to primary antibodies, the membranes were washed with buffer (3×, 5 minutes each at room temperature) followed by incubation with relevant secondary antibodies for 1 hour at 24° C. Finally, the membranes were washed with buffer and developed using the ECL Western blot detection reagent (GE Health Care, Buckinghamshire, UK). The ERG protein expression of the test azophenol compounds were normalized with GAPDH.” left out

PSA = assay: Inhibition of endogenous PSA protein in VCaP cells (Western blot); conditions: 0.25 μM and 1 μM, FIG. 2
Description: as §1, with “Following exposure to primary antibodies, the membranes were washed with buffer (3×, 5 minutes each at room temperature) followed by incubation with relevant secondary antibodies for 1 hour at 24° C. Finally, the membranes were washed with buffer and developed using the ECL Western blot detection reagent (GE Health Care, Buckinghamshire, UK). The ERG protein expression of the test azophenol compounds were normalized with GAPDH.” left out

LNCaP cells = assay: LNCaP cell growth; conditions: 0.25 μM and 1 μM, FIG. 5
Description: (§2) Approximately 48 hours following plating of cells, the appropriate test compound is added to each well of the tissue culture dish at a predetermined concentration. The medium was replenished every 24 hours with fresh growth medium containing the same concentration of the same test compound for indicated period of the cell growth inhibition assay. Percent cell growth inhibition was calculated using a hemocytometer for estimating cell density in each of the test wells of the tissue culture dish and trypan blue dye exclusion microscopy and photography to estimate the fraction of viable cells in each test well.

LAPC-4 cells = assay: LAPC-4 cell growth; conditions: 0.25 μM and 1 μM, FIG. 7
Description: as §2

RIOK2 protein [1] = target: T2, RIOK2 protein (Homo sapiens, UniProt Q9BVS4); assay: Inhibition of endogenous RIOK2 protein in COLO320 cells (Western blot); conditions: 0.25 μM and 1 μM, FIG. 8
RWPE-1 cells = assay: RWPE-1 cell growth; conditions: 0.25 μM and 1 μM, FIG. 12
Description: as §2

RIOK2 protein [2] = target: T2, RIOK2 protein; assay: Inhibition of RIOK2 protein in VCaP cells (Western blot); set-up: host or cells: VCaP; conditions: 0.1, 0.2, 0.4, 0.6, 0.8 and 1 μM; FIG. 14, 17
RIOK2 protein [3] = target: T2, RIOK2 protein; assay: Inhibition of RIOK2 protein in HUVEC normal endothelial cells (Western blot); set-up: ERG and RIOK2 proteins in endogenous ERG expressing normal endothelial cells (HUVEC); host or cells: HUVEC; conditions: 0.25 μM and 1 μM, FIG. 10

T2 sequence (Q9BVS4 whole entry): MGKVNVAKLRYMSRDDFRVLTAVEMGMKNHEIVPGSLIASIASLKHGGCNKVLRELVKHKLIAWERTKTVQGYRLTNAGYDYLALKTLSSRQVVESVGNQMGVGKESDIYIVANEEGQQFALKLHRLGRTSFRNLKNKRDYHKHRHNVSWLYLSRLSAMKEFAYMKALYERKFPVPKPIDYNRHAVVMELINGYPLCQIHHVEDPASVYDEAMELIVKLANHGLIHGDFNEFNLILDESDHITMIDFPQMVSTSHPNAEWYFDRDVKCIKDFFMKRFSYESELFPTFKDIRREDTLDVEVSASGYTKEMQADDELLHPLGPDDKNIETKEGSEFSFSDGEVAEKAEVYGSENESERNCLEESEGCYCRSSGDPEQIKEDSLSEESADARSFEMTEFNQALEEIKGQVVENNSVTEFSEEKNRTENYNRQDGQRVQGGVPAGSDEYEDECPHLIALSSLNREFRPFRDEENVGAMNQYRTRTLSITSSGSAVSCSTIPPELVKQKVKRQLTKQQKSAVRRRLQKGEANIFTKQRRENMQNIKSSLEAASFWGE

Cc1ccc(O)c(N=Nc2nccs2)c1 [Compound 2]
inhibition of ERG protein in VCaP cells (ERG protein): inhibition | inhibition of endogenous ERG protein (ERG protein): inhibition | inhibition of endogenous AR protein (AR): inhibition | inhibition of endogenous PSA protein (PSA): inhibition | growth of ERG negative prostate cancer cells (LNCaP cells): do not affect the growth | growth of ERG negative prostate cancer cells (LAPC-4 cells): do not affect the growth | inhibition of endogenous RIOK2 protein (RIOK2 protein [1]): inhibition | growth of ERG negative prostate-derived immortalized cells (RWPE-1 cells): do not affect the growth | inhibition of RIOK2 protein in VCaP cells (RIOK2 protein [2]): inhibition | inhibition of RIOK2 protein (RIOK2 protein [3]): lack of inhibition

CC(C)c1ccc(O)c(N=Nc2nccs2)c1 [Compound 1]
inhibition of ERG protein in VCaP cells (ERG protein): inhibition | inhibition of endogenous ERG protein (ERG protein): inhibition | inhibition of endogenous AR protein (AR): inhibition | inhibition of endogenous PSA protein (PSA): inhibition | growth of ERG negative prostate cancer cells (LNCaP cells): do not affect the growth | growth of ERG negative prostate cancer cells (LAPC-4 cells): do not affect the growth | inhibition of endogenous RIOK2 protein (RIOK2 protein [1]): inhibition | growth of ERG negative prostate-derived immortalized cells (RWPE-1 cells): do not affect the growth | inhibition of RIOK2 protein in VCaP cells (RIOK2 protein [2]): inhibition | inhibition of RIOK2 protein (RIOK2 protein [3]): lack of inhibition
